We go through 11 molecules from patent US12325697B2 (Nimbus Clio, Inc., priority 2021, dated 2025).

This assay deals with Recombinant human Cbl-b (aa 36-427) (Homo sapiens (Human), UniProt Q13191). Briefly: Cbl-b Biochemical Assay (TR-FRET). The following applies: read-out: TR-FRET hCbl-b IC50. On the procedure:
Recombinant human Cbl-b (aa 36-427) was expressed in E. coli, purified and biotinylated in vitro. The protein was diluted to 12 nM in freshly prepared assay buffer consisting of 50 mM HEPES, pH 7.0, 100 mM NaCl, 5 mM MgCl2, 0.01% Triton-X 100, 0.01% BSA and 1 mM DTT. Recombinant human Src (aa 254-536)-[…]-Zap-70 (aa 281-297) fusion protein was expressed in E. coli and purified. Protein was diluted in assay buffer to 2-5 nM and supplemented with ATP to 1 mM. Fluorescein-BODIPY labeled UBE[…]([…])-Ub was prepared by conjugating ubiquitin (Ub) labeled at its N-terminus with Fluorescein-BODIPY maleimide (ThermoFisher Catalog no B10250) to E. coli expressed and purified UBE[…]([…]) [see Dou et al Nature Structural and Molecular Biology 8: 982-987, 2013]. Recombinant human UBE2D2([…]) was expressed in E. coli, purified and ubiquitinated and Bodipy labelled in vitro. Protein was diluted to 200 nM in assay buffer without MgCl2 (or Cisbio PPI buffer). Streptavidin-Terbium was added to 2 nM and EDTA to 10 mM, to provide a binding assay mix. Compounds were dissolved in DMSO and diluted to prepare a ten-point dilution series. 100 nl of each compound concentration was dispensed in duplicate in a 384 well black assay plate using acoustic dispensing. Wells for maximum signal controls received 100 nl of DMSO only and wells for minimum signal controls received 100 nl of a reference inhibitor compound at a final assay concentration of […] to produce 100% inhibition. 5 μl of diluted Cbl-b enzyme was added to all wells of the assay plate and incubated at RT for 30-60 min. The enzyme assay was initiated by addition of 5 μl of Src-Zap/ATP mix to all wells, and the plate incubated at RT for 60 min. The enzyme reaction was terminated and the binding reaction was initiated by adding 10 μl of binding assay mix to all wells and incubating the plate at RT for 60 min prior to assay read. Final assay conditions consisted of 6 nM Cbl-b, 1-2.5 nM Src-Zap70, 0.5 mM ATP, 1% (v/v) DMSO (enzyme reaction) and 100 nM UBE2D2([…])-Ub-FL-BODIPY, 5 mM EDTA, 1 nM Streptavidin-Tb (binding reaction). The HTRF assay signal was measured at 520 nm on an Envision plate reader, with reference signal at 485 or 620 nm. Data was normalized using maximum and minimum assay controls: % Inhibition=100-(100*((maximum control)-unknown)/(maximum control-minimum control)). A 4-parameter dose-response equation was used to fit the normalized dose-response data and derive an IC50 for test compounds.

A word on the IC50: it is the point on the concentration scale where inhibition reaches its midpoint.

Sequence of Recombinant human Cbl-b (aa 36-427) (Q13191 36-427): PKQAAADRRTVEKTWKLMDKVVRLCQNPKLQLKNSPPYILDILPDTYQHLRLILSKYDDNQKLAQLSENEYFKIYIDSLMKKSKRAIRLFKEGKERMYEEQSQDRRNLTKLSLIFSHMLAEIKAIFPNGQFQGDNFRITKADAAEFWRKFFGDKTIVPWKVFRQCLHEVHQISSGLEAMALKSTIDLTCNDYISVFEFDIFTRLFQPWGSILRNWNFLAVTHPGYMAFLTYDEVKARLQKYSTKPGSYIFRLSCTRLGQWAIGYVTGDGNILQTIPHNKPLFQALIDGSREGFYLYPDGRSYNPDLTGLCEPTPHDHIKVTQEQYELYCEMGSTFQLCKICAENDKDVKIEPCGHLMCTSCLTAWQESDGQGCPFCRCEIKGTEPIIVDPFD

As to `CCNc1cc(-c2c(-c3nncn3C)cnn2C)cc(N2Cc3c(cc(CN4CC[C@@H](F)C4)cc3C(F)(F)F)C2=O)n1` [ACA-1, (R)-2-(6-(Ethylamino)-4-(1-methyl-4-(4-methyl-4H-1,2,4-triazol-3-yl)-1H-pyrazol-5-yl)pyridin-2-yl)-6-((3-fluoropyrrolidin-1-yl)methyl)-4-(trifluoromethyl)isoindolin-1-one], the IC50 was at most 200 nM. `CCNc1cc(-c2ccccc2-c2nncn2C)cc(N2Cc3c(cc(CN4CC(F)C4)cc3C(F)(F)F)C2=O)n1` [AG-1, 2-(6-(Ethylamino)-4-(2-(4-methyl-4H-1,2,4-triazol-3-yl)phenyl)pyridin-2-yl)-6-((3-fluoroazetidin-1-yl)methyl)-4-(trifluoromethyl)isoindolin-1-one]: the 50% inhibitory concentration (IC50) was at most 200 nM. In the case of `Cn1cnnc1-c1cc(C#N)ccc1-c1cccc(N2Cc3c(cccc3C(F)(F)F)C2=O)c1` [ACC-8, 2-(4-Methyl-4H-1,2,4-triazol-3-yl)-3′-(1-oxo-4-(trifluoromethyl)isoindolin-2-yl)-[1,1′-biphenyl]-4-carbonitrile], the IC50 is at most 200 nM. For the molecule `CCNc1cc(-c2ccccc2-c2nncn2C)cc(N2Cc3c(cc(CN4CCC[C@H](C)C4)cc3C(F)(F)F)C2=O)n1` [AF-1, (S)-2-(6-(Ethylamino)-4-(2-(4-methyl-4H-1,2,4-triazol-3-yl)phenyl)pyridine-2-yl)6-((3-methylpiperidin-1-yl)methyl)-4-(trifluoromethyl)isoindolin-1-one], the IC50 was at most 200 nM. With `CCNc1cc(-c2ccccc2-c2nncn2C)cc(N2Cc3c(cccc3C(F)(F)F)C2=O)n1` [AAU-1, 2-(6-(Ethylamino)-4-(2-(4-methyl-4H-1,2,4-triazol-3-yl)phenyl)pyridin-2-yl)-4-(trifluoromethyl)isoindolin-1-one], the IC50 was at most 200 nM. Consider `CCNc1cc(-c2c(-c3nncn3C)cnn2C)cc(NC(=O)c2cc(C)cc(C3CC3)n2)n1` [ABW-3, 6-Cyclopropyl-N-(6-(ethylamino)-4-(1-methyl-4-(4-methyl-4H-1,2,4-triazol-3-yl)-1H-pyrazol-5-yl)pyridin-2-yl)-4-methylpicolinamide], for which the IC50 is 200 to 1000 nM. To `CCNc1cc(-c2c(-c3nncn3C)cnn2C)cc(N2Cc3c(cc(CO)cc3C(F)(F)F)C2=O)n1` [ACH-1, 2-(6-(Ethylamino)-4-(1-methyl-4-(4-methyl-4H-1,2,4-triazol-3-yl)-1H-pyrazol-5-yl)pyridin-2-yl)-6-(hydroxymethyl)-4-(trifluoromethyl)isoindolin-1-one] belongs at most 200 nM; to `Cn1cnnc1-c1ccccc1-c1cccc(N2Cc3c(cc(CN[C@H]4CCC[C@@H]4O)cc3C(F)(F)F)C2=O)c1` [Example T-2, 6-((((1S,2S)-2-Hydroxycyclopentyl)amino)methyl)-2-(2′-(4-methyl-4H-1,2,4-triazol-3-yl)-[1,1′-biphenyl]-3-yl)-4-(trifluoromethyl)isoindolin-1-one], at most 200 nM; to `Cn1cnnc1-c1ccccc1-c1cc(C2CC2)nc(N2Cc3c(cc(CO)cc3C(F)(F)F)C2=O)c1` [ACK-3, 2-(6-Cyclopropyl-4-(2-(4-methyl-4H-1,2,4-triazol-3-yl)phenyl)pyridin-2-yl)-6-(hydroxymethyl)-4-(trifluoromethyl)isoindolin-1-one], at most 200 nM. Consider `CCNc1cc(-c2c(-c3nncn3C)cnn2C)cc(NC(=O)c2cc(C)nc(C3CC3)n2)n1` [ABJ-4, 2-Cyclopropyl-N-(6-(ethylamino)-4-(1-methyl-4-(4-methyl-4H-1,2,4-triazol-3-yl)-1H-pyrazol-5-yl)pyridin-2-yl)-6-methylpyrimidine-4-carboxamide], for which the IC50 lay in the range of 200 to 1000 nM. On to `Cn1cnnc1-c1ccc(Br)cc1-c1cccc(N2Cc3c(cccc3C(F)(F)F)C2=O)c1` [AAJ-9, 2-(5′-Bromo-2′-(4-methyl-4H-1,2,4-triazol-3-yl)-[1,1′-biphenyl]-3-yl)-4-(trifluoromethyl)isoindolin-1-one], for which the IC50 lay within 1000 to 10000 nM.
